Measurements as given in patent US20240398805A1, “QUINAZOLINE DERIVED COMPOUNDS AS EGFR INHIBITORS AND THEIR USES THEREOF” (ACCUTAR BIOTECHNOLOGY INC., priority 2021, published 2024).

Experiments:
Type in all cases: cell-based
HCC827 cells = test: Cell growth inhibition (CellTiter-Glo, 3 days) in HCC827; conditions: Homo sapiens, 72 h, 3 days after administration
Outline: (§1)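 HCC827 cells were plated at 5000 cells/well in RPMI with 10% FBS, and A431 cells at the same density in DMEM with 10% FBS. After overnight attachment, compounds were added at various concentrations. Luminescence was recorded after plates were equilibrated to room temperature and incubated 10 min with reagent.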

[1] = test system: HCC827-ASV cells (human EGFR exon 20 insertion mutant A769_D770insASV); test: Cell growth inhibition (CellTiter-Glo, 3 days) in HCC827-ASV; conditions: 72 h, 3 days after administration
Outline: (§2)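 Growth inhibition used a CellTiter-Glo luminescence read-out after 3 days of compound exposure at various concentrations. Cells were plated the day before at 5000/well in RPMI plus 10% FBS. The lines are HCC827 transduced by lentivirus with codon-optimized EGFR ASV or ERBB2 YVMA exon 20 insertions.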

[2] = test system: HCC827-YVMA cells (human ERBB2 exon20 insertion mutant A775_G776ins YVMA); test: Cell growth inhibition (CellTiter-Glo, 3 days) in HCC827-YVMA; conditions: 72 h, 3 days after administration
Outline: as §2

[3] = test system: HCC827-SVD cells (human EGFR exon 20 insertion mutant D770_N771 insSVD); test: Cell growth inhibition (CellTiter-Glo, 3 days) in HCC827-SVD; conditions: 72 h, 3 days after administration
Outline: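 HCC827 cells carrying lentiviral codon-optimized EGFR D770_N771 insSVD, with endogenous EGFR knocked out by CRISPR (single clone), seeded at 5000 cells/well in RPMI with 10% FBS. Viability read by CellTiter-Glo luminescence.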

A431 cells = test: Cell growth inhibition (CellTiter-Glo, 3 days) in A431; conditions: Homo sapiens, A-431, 72 h, 3 days after administration
Outline: as §1

SMILES	GI50 (HCC827 cells) [nM]	GI50 [1] [nM]	GI50 [2] [nM]	GI50 [3] [nM]	GI50 (A431 cells) [nM]
C=CC(=O)N1CCC(Nc2cc3c(Nc4ccc(Oc5nc(-c6cnc(C)c(F)c6)cs5)cc4F)ncnc3cc2OC)CC1 [Example 94, 1-(4-((4-((2-fluoro-4-((4-(5-fluoro-6-methylpyridin-3-yl)thiazol-2-yl)oxy)phenyl)amino)-7-methoxyquinazolin-6-yl)amino)piperidin-1-yl)prop-2-en-1-one]	30 to 60	30 to 60	30 to 60	100 to 300	≥ 1000
C=CC(=O)N1CCC(Nc2cc3c(Nc4ccc(OCc5ccccn5)c(Cl)c4)ncnc3cc2OCCN2CCOCC2)CC1 [Example 95, 1-(4-((4-((3-chloro-4-(pyridin-2-ylmethoxy)phenyl)amino)-7-(2-morpholinoethoxy)quinazolin-6-yl)amino)piperidin-1-yl)prop-2-en-1-one]	< 30	< 30	< 30	< 30	100 to 300
C=CC(=O)N1CCC(Nc2cc3c(Nc4ccc(OCc5ccccn5)c(Cl)c4)ncnc3cc2OCCN(C)C)CC1 [Example 96, 1-(4-((4-((3-chloro-4-(pyridin-2-ylmethoxy)phenyl)amino)-7-(2-(dimethylamino)ethoxy)quinazolin-6-yl)amino)piperidin-1-yl)prop-2-en-1-one]	60 to 100	100 to 300	100 to 300	100 to 300	300 to 600
C=CC(=O)N1CCC(Nc2cc3c(Nc4ccc(Oc5ccnc(-c6nc(C)cs6)c5)cc4F)ncnc3cc2OC)CC1 [Example 98, 1-(4-((4-((2-fluoro-4-((2-(4-methylthiazol-2-yl)pyridin-4-yl)oxy)phenyl)amino)-7-methoxyquinazolin-6-yl)amino)piperidin-1-yl)prop-2-en-1-one]	60 to 100	< 30	< 30	< 30	100 to 300
C=CC(=O)N1CCC(Nc2cc3c(Nc4ccc(Oc5ccnc(-c6ncc(C)s6)c5)cc4F)ncnc3cc2OC)CC1 [Example 99, 1-(4-((4-((2-fluoro-4-((2-(5-methylthiazol-2-yl)pyridin-4-yl)oxy)phenyl)amino)-7-methoxyquinazolin-6-yl)amino)piperidin-1-yl)prop-2-en-1-one]	60 to 100	30 to 60	30 to 60	60 to 100	600 to 1000
C=CC(=O)N1CCC(Nc2cc3c(Nc4ccc(Oc5ccnc(N6CCCC6)c5)cc4F)ncnc3cc2OC)CC1 [Example 102, 1-(4-((4-((2-fluoro-4-((2-(pyrrolidin-1-yl)pyridin-4-yl)oxy)phenyl)amino)-7-methoxyquinazolin-6-yl)amino)piperidin-1-yl)prop-2-en-1-one]	100 to 300	100 to 300	100 to 300	60 to 100	100 to 300
C=CC(=O)N1CCC(Nc2cc3c(Nc4ccc(Oc5ccnc(N(C)C)c5)cc4F)ncnc3cc2OC)CC1 [Example 103, 1-(4-((4-((4-((2-(dimethylamino)pyridin-4-yl)oxy)-2-fluorophenyl)amino)-7-methoxyquinazolin-6-yl)amino)piperidin-1-yl)prop-2-en-1-one]	30 to 60	< 30	< 30	< 30	100 to 300
C=CC(=O)N1CCC(Nc2cc3c(Nc4ccc(Oc5ccnc(N6CCC(OC)CC6)c5)cc4F)ncnc3cc2OC)CC1 [Example 104, 1-(4-((4-((2-fluoro-4-((2-(4-methoxypiperidin-1-yl)pyridin-4-yl)oxy)phenyl)amino)-7-methoxyquinazolin-6-yl)amino)piperidin-1-yl)prop-2-en-1-one]	100 to 300	< 30	< 30	< 30	≥ 1000
C=CC(=O)N1CCC(Nc2cc3c(Nc4ccc(Oc5ccnc(N6C[C@H](C)O[C@@H](C)C6)c5)cc4F)ncnc3cc2OC)CC1 [Example 105, 1-(4-((4-((4-((2-((2S,6S)-2,6-dimethylmorpholino)pyridin-4-yl)oxy)-2-fluorophenyl)amino)-7-methoxyquinazolin-6-yl)amino)piperidin-1-yl)prop-2-en-1-one]	300 to 600	< 30	< 30	< 30	≥ 1000
C=CC(=O)N1CCC(Nc2cc3c(Nc4ccc(Oc5ccnc(N6CCCOCC6)c5)cc4F)ncnc3cc2OC)CC1 [Example 106, 1-(4-((4-((4-((2-(1,4-oxazepan-4-yl)pyridin-4-yl)oxy)-2-fluorophenyl)amino)-7-methoxyquinazolin-6-yl)amino)piperidin-1-yl)prop-2-en-1-one]	100 to 300	< 30	< 30	< 30	≥ 1000
C=CC(=O)N1CCC(Nc2cc3c(Nc4ccc(OCc5ccc(N6CCOCC6)cn5)cc4F)ncnc3cc2OC)CC1 [Example 107, 1-(4-((4-((2-fluoro-4-((5-morpholinopyridin-2-yl)methoxy)phenyl)amino)-7-methoxyquinazolin-6-yl)amino)piperidin-1-yl)prop-2-en-1-one]	100 to 300	300 to 600	300 to 600	600 to 1000	300 to 600
C=CC(=O)N1CCC(Nc2cc3c(Nc4ccc(Oc5cc(N6C[C@@H](C)O[C@@H](C)C6)ncc5Cl)cc4F)ncnc3cc2OC)CC1 [Example 108, 1-(4-((4-((4-((5-chloro-2-((2R,6S)-2,6-dimethylmorpholino)pyridin-4-yl)oxy)-2-fluorophenyl)amino)-7-methoxyquinazolin-6-yl)amino)piperidin-1-yl)prop-2-en-1-one]	300 to 600	100 to 300	100 to 300	300 to 600	≥ 1000
C=CC(=O)N1CCC(Nc2cc3c(Nc4ccc(Oc5ccnn5-c5cnc(OC)c(F)c5)cc4F)ncnc3cc2OC)CC1 [Example 109, 1-(4-((4-((2-fluoro-4-((1-(5-fluoro-6-methoxypyridin-3-yl)-1H-pyrazol-5-yl)oxy)phenyl)amino)-7-methoxyquinazolin-6-yl)amino)piperidin-1-yl)prop-2-en-1-one]	< 30	≥ 1000	≥ 1000	≥ 1000	≥ 1000
C=CC(=O)N1CCC(Nc2cc3c(Nc4ccc(Oc5ncc(N6C[C@@H](C)O[C@@H](C)C6)cn5)cc4F)ncnc3cc2OC)CC1 [Example 110, 1-(4-((4-((4-((5-((2R,6S)-2,6-dimethylmorpholino)pyrimidin-2-yl)oxy)-2-fluorophenyl)amino)-7-methoxyquinazolin-6-yl)amino)piperidin-1-yl)prop-2-en-1-one]	< 30	≥ 1000	≥ 1000	≥ 1000	100 to 300
C=CC(=O)N1CCC(Nc2cc3c(Nc4ccc(Oc5ccc(N6C[C@@H](C)O[C@@H](C)C6)cn5)cc4F)ncnc3cc2OC)CC1 [Example 111, 1-(4-((4-((4-((5-((2R,6S)-2,6-dimethylmorpholino)pyridin-2-yl)oxy)-2-fluorophenyl)amino)-7-methoxyquinazolin-6-yl)amino)piperidin-1-yl)prop-2-en-1-one]	30 to 60	300 to 600	300 to 600	300 to 600	600 to 1000
C=CC(=O)N1CCC(Nc2cc3c(Nc4ccc(Oc5ccnc(N6CCS(=O)(=O)CC6)c5)cc4F)ncnc3cc2OC)CC1 [Example 112, 1-(4-((4-((4-((2-(1,1-dioxidothiomorpholino)pyridin-4-yl)oxy)-2-fluorophenyl)amino)-7-methoxyquinazolin-6-yl)amino)piperidin-1-yl)prop-2-en-1-one]	≥ 1000	300 to 600	600 to 1000	100 to 300	≥ 1000
C=CC(=O)N1CCC(Nc2cc3c(Nc4ccc(Oc5ccnc(N6CCN(C)CC6)c5)cc4F)ncnc3cc2OC)CC1 [Example 113, 1-(4-((4-((2-fluoro-4-((2-(4-methylpiperazin-1-yl)pyridin-4-yl)oxy)phenyl)amino)-7-methoxyquinazolin-6-yl)amino)piperidin-1-yl)prop-2-en-1-one]	30 to 60	< 30	< 30	< 30	600 to 1000
C=CC(=O)N1CCC(Nc2cc3c(Nc4ccc(Oc5ccnc(N6CC[C@@H](OC)C6)c5)cc4F)ncnc3cc2OC)CC1 [Example 114, (R)-1-(4-((4-((2-fluoro-4-((2-(3-methoxypyrrolidin-1-yl)pyridin-4-yl)oxy)phenyl)amino)-7-methoxyquinazolin-6-yl)amino)piperidin-1-yl)prop-2-en-1-one]	300 to 600	60 to 100	100 to 300	100 to 300	≥ 1000
C=CC(=O)N1CCC(Nc2cc3c(Nc4ccc(Oc5ccnc(N6CC[C@H](OC)C6)c5)cc4F)ncnc3cc2OC)CC1 [Example 115, (S)-1-(4-((4-((2-fluoro-4-((2-(3-methoxypyrrolidin-1-yl)pyridin-4-yl)oxy)phenyl)amino)-7-methoxyquinazolin-6-yl)amino)piperidin-1-yl)prop-2-en-1-one]	300 to 600	100 to 300	100 to 300	60 to 100	300 to 600
